ChEMBL document CHEMBL5725270, “Substituted imidazopyridazines” (2016)

Experiment: Time-Resolved Fluorescence Resonance Energy Transfer (TR-FRET) Assay: The human kinase Mps-1 phosphorylates a biotinylated substrate peptide. Detection of the phosphorylated product is achieved by time-resolved fluorescence resonance energy transfer (TR-FRET) from Europium-labelled anti-phospho-Serine/Threonine antibody as donor to streptavidin labelled with cross-linked allophycocyanin (SA-XLent) as acceptor. Compounds are tested for their inhibition of the kinase activity.N-terminally GST-tagged human full length recombinant Mps-1 kinase (purchased from Invitrogen, Karslruhe, Germany, cat. no PV4071) was used. […] The concentration of Mps-1 in the assay was adjusted to the activity of the enzyme lot and was chosen appropriate to have the assay in the linear range, typical enzyme concentrations were in the range of about 1 nM (final conc. in the 5 ul assay volume).

Structure (SMILES) | IC50 [pM]
Cc1cc(-c2cnc3c(NCCC(F)(F)F)cc(C(C)(O)c4cccc(F)c4O)nn23)ccc1C(=O)NC1CC1 (configuration not stated) | 300
Cc1cc(-c2cnc3c(NCCC(F)(F)F)cc(C4(c5cc(F)ccc5F)CC4)nn23)ccc1C(=O)NC1CC1 | 800
C=C(c1cccc(F)c1)c1cc(NCCC(F)(F)F)c2ncc(-c3ccc(C(=O)NC4CC4)c(C)c3)n2n1 | 300
Cc1cc(-c2cnc3c(NCCC(F)(F)F)cc(C(=O)c4cc(F)ccc4F)nn23)ccc1C(=O)NC1CC1 | 600
Cc1cc(-c2cnc3c(NCCC(F)(F)F)cc(C4(c5cccc(F)c5)CC4)nn23)ccc1C(=O)NC1CC1 | 900
C=C(c1cc(NCCC(F)(F)F)c2ncc(-c3ccc(C(=O)NC4CC4)c(C)c3)n2n1)c1cccc(F)c1F | 400
C=C(c1cccc(OC)c1)c1cc(NCCC(F)(F)F)c2ncc(-c3ccc(C(=O)NC4CC4)c(C)c3)n2n1 | 800
Cc1cc(-c2cnc3c(NCCC(F)(F)F)cc(C(F)(F)c4cc(F)ccc4F)nn23)ccc1C(=O)NC1CC1 | 500

The remaining lines, values ahead:

IC50 [pM] | Structure (SMILES)
600 | Cc1cc(-c2cnc3c(NCCC(F)(F)F)cc(C(=O)c4cccc(F)c4F)nn23)ccc1C(=O)NC1CC1
500 | C=C(c1ccc(OC)cc1)c1cc(NCCC(F)(F)F)c2ncc(-c3ccc(C(=O)NC4CC4)c(C)c3)n2n1
1200 | COc1ccc(C(=O)c2cc(NCCC(F)(F)F)c3ncc(-c4ccc(C(=O)NC5CC5)c(C)c4)n3n2)cc1
400 | C=C(c1cc(NCCC(F)(F)F)c2ncc(-c3ccc(C(=O)NC4CC4)c(C)c3)n2n1)c1cc(F)ccc1O
700 | Cc1cc(-c2cnc3c(NCCC(F)(F)F)cc(C(F)c4cccc(F)c4)nn23)ccc1C(=O)NC1CC1 (configuration not stated)
300 | Cc1cc(-c2cnc3c(NCCC(F)(F)F)cc(C(O)c4cc(F)ccc4F)nn23)ccc1C(=O)NC1CC1 (configuration not stated)
500 | COc1cccc(C(=O)c2cc(NCCC(F)(F)F)c3ncc(-c4ccc(C(=O)NC5CC5)c(C)c4)n3n2)c1
1500 | Cc1cc(-c2cnc3c(NCCC(F)(F)F)cc(C(F)(F)c4cccc(F)c4F)nn23)ccc1C(=O)NC1CC1
600 | C=C(c1cc(NCCC(F)(F)F)c2ncc(-c3ccc(C(=O)NC4CC4)c(C)c3)n2n1)c1cc(F)ccc1F
